Laboratory results taken from patent publication US20260347330A1, “N-METHYL-D-ASPARTATE RECEPTOR (NMDAR) ANTAGONISTS AND USES THEREOF” (Bexson Biomedical, Inc., priority 2022, published 2026).

How the values were obtained:
[1] = target: NMDAR; test: NMDA receptor [3H]-MK-801 competition radioligand binding in rat forebrain; conditions: for NMDAR binding affinity pKi (mean ± SEM): [3H]-MK-801 1 nM competition, 1 mM glutamate, 0.1 mM glycine, pH 7.4, 2 h ambient, N = 1-4; for % inhibition of specific [3H]-MK-801 binding: at 10,000 nM
Method: Rat forebrains from 7-8 week old Sprague-Dawley rats (BioChemed, USA) were homogenized in a buffer containing 10 mM HEPES and 1 mM EDTA (pH 7.4) using a mechanical homogenizer (Janke-Kunkel Ultra-Turrax T25). A 10 mL volume was used per brain for all steps involving suspension of the brain homogenate tissue. The brain homogenate was then centrifuged (15 minutes at 20,000 RPM and 4 ° C). The supernatant was carefully poured off and the pellet was resuspended in fresh 10 mM HEPES and 1 mM EDTA containing buffer. This process was repeated 5 times. Following the 5th centrifugation, the buffer was replaced with a buffer containing 10 mM HEPES (pH 7.4). The homogenate was then incubated in a water bath at 37 ° C in the dark (covered with foil). Centrifugation was then repeated 3 additional times and after resuspending in the HEPES buffer, the final homogenate was aliquoted and stored at −80 ° C until use. Protein concentration of the homogenate was determined by utilizing the Bradford method using Coomassie protein assay reagent (Sigma, USA) with Bovine Serum albumin (Sigma, USA) as a standard.
At the time of the experiment, the homogenate was diluted to a final concentration of […] in 10 mM HEPES buffer, 1 mM glutamate, and 0.1 mM glycine (pH 7.4) and combined with 1 nM (+)-[3H]-MK-801 (Perkin Elmer NET972250UC), unlabeled competitor compounds at varying concentrations, or 30 uM MK-801 to determine non-specific binding, in a total volume of 1 mL in a 96 well plate. The protein homogenate is always added to the wells last. The plates were covered with aluminum foil, and placed on a mechanical shaker (250 RPM) for 2 h at ambient temperature ([…]). After 2 h, the homogenate was collected by vacuum filtration using a Unifilter-96 Cell Harvester (Perkin Elmer) over presoaked UniFilter-96 GF/C P Microplates (Perkin Elmer) and filters were washed with room temperature 10 mM HEPES buffer (pH 7.4) (3×1 mL). The filter plates were dried overnight in a fume hood. The next day, the bound tritium was measured via liquid scintillation counting with […] MicroScint-O (Perkin Elmer) added per well, using a MicroBeta2 Plate Reader with 6-detectors scintillation counter (Perkin Elmer) at 55% efficiency. IC50 value estimates were determined in GraphPad Prism 9.3.1 using non-linear regression (single site fit) with log-concentration plotted against percent specific binding. Ki values were calculated using the equation of Cheng and Prusoff. […] Experiments were performed in duplicate. N=1-4 per compound.

[2] = target: T1, hSERT (Homo sapiens, UniProt P31645); test: SERT [3H]-citalopram competition radioligand binding, hSERT expressing HEK293 cell membranes; conditions: for Ki: 0.5 nM [3H]-citalopram competition, hSERT HEK293 membranes, pH 7.4, 2 h ambient, N = 1, read-out: SERT pKi (converted)
T1 construct: no vendor name is printed for this cell line) RBHSTM-K; host or cells: HEK293
Method: Valiscreen Serotonin Transporter (SERT) (Human) Cell Line (HEK293 host cells, Product No: RBHSTM-K) grown in DMEM/F12 media with 10% FBS, 0.1 mg/ml Geneticin, 1% GlutaMAX, and 1% Penicillin-Streptomycin added were used to prepare SERT membrane fractions. Cells were grown in 150 mm dishes and harvested between 70-90% confluency, passages 5-20. Cells were detached using a buffer containing 1 mM HEPES and 2 mM EDTA (pH 7.4). After detachment, the cells were homogenized using a handheld homogenizer, and the lysate was centrifuged (30 minutes at 30,000×G) at 4 ° C The resulting pellet was resuspended in storage buffer containing 20 mM HEPES, 10 mM MgCl2, 0.1 mM EDTA, and 10% sucrose at pH 7.4. Protein concentration was determined via the Bradford method using Coomassie protein assay reagent (Sigma, USA) with Bovine Serum albumin (Sigma, USA) as standard.
Buffer containing 10 mM HEPES, 120 mM NaCl, and 5 mM KCl (pH 7.4) was added to SERT membranes to dilute to a final protein concentration of 5 µg/mL per well. Additionally, 0.5 nM [3H]-Citalopram (Perkin Elmer NET1039250UC) was added, along with unlabeled competitors at various concentrations or […] citalopram for nonspecific binding controls, bringing the total volume to 1 ml in a 96 well plate. SERT membranes were always added last to each well. The plates were covered from light with aluminum foil and incubated at ambient temperature ([…]) and placed on a mechanical shaker (250RPM) for 2 h. After 2 h, SERT protein was captured via vacuum filtration using a Unifilter-96 Cell Harvester (Perkin Elmer) over presoaked UniFilter-96 GF/C P Microplates (Perkin Elmer) and filters were washed with room temperature 10 mM HEPES, 120 mM NaCl, and 5 mM KCl buffer (pH 7.4) (3×1 mL). The filter plates were dried overnight in a fume hood. The next day, the SERT bound tritium was measured via liquid scintillation counting with MicroScint-O (Perkin Elmer), using a MicroBeta2 Plate Reader with 6-detectors scintillation counter (Perkin Elmer) at 55% efficiency. IC50 value estimates were determined in GraphPad Prism 9.3.1 using non-linear regression (single site fit) with log-concentration plotted against percent specific binding. […] For each experiments compounds were run in duplicate. N=1-3 repeats per compound.

[3] = target: T2, human Dopamine Transporter (Homo sapiens, UniProt Q01959); test: Human dopamine reuptake transporter (DAT) inhibition functional study, ASP+ uptake in CHO cells; assay type: cell-based; conditions: at 10,000 nM, 10 μM ASP+, 1 h, CHO cells stably expressing human DAT
T2 construct: host or cells: CHO
Method: CHO cells stably expressing human Dopamine Transporter Protein (Valiscreen® Perkin Elmer RBHDATM-K) were cultured in 150 mm Tissue Culture dishes (Cell Treat 229651) at 37 ° C and 5% CO2. Ham's F-12 Nutrient Mix (Gibco, USA) was supplemented with 10% dialyzed FBS (Gibco, USA), 100 µg/ml Geneticin (Gibco, USA), and 100 units/ml Penicillin and Streptomycin (Gibco, USA) as the culture media. Cells were maintained on a consistent splitting and assay schedule and utilized until passage 30 (no change in control experiments were observed up to this point).
Cells were detached from their growth dishes using Trypsin-EDTA (0.25%) (Gibco, USA) at 70-80% confluency. The cells were counted and diluted in culture media to a density of 300,000 cells/mL. 200 µl of this mixture was added to each well of a clear bottom, black-walled 96 well plate (Coming 3603, USA). Plates were incubated in the laminar flow hood for one hour prior to being placed in the cell culture incubator in order to encourage even cell distribution across the entire well surface.
The next day, Krebs-Ringer HEPES (KRH) Buffer pH 7.4 was prepared (10 mM HEPES, 130 mM NaCl, 1.3 mM KCl, 2.2 mM CaCl2, 1.2 mM MgSO4, 1.2 mM KH2PO4) and titrated with 6N NaOH. This buffer was stored in a 4 ° C refrigerator for up to 4 days (after which it was discarded). Additionally, a solution containing KRH buffer and 330 µM Trypan Blue (Sigma T6146-25G), a solution of 20 mM ASP+(MedChem Express, NJ, USA) dissolved in DMSO, were both prepared. The 20 mM DMSO stock of ASP+ was diluted to a working concentration of 40 µM in KRH buffer. DMSO solutions of 40 mM GBR-12935 dihydrochloride (MedChem Express, NJ, USA) and 40 mM test compounds were also prepared. DMSO solutions of test compounds were then diluted to a range of […]-40 μM in KRH Buffer with 1% additional DMSO added to provide consistent DMSO concentration in all samples. […] The final DMSO concentration in each well was 0.3%. […] KRH buffer with DMSO “vehicle control” served as the total fluorescence control to represent the maximum amount of substrate uptake without DAT transporter inhibition.
At the time of assay, cell media was carefully removed from the wells via pipette aspiration. 100 μL of KRH buffer was then added to all wells. Both controls, non-specific and total fluorescence stock solutions were then added to the plate (50 µL of either 400 µM GBR-12935 or KRH DMSO buffer respectively). Additionally, GBR-12935 and test compounds were added to the plate ([…] for each sample). The 10,000 nM concentration of test compound was run in triplicate wells. Next, […] ASP+(final concentration of 10 μM) was added to each well initiating the experiment. Cells were placed in the cell culture incubator for one hour, at which point 20 µL of 330 µM Trypan Blue was added to each well to quench extracellular fluorescence. The cells were then placed in the microplate reader (BioTek Synergy Neo 2), using Gen5 Ver 3.11 software. The reader was preheated to 37 ° C and following a brief orbital shake, intracellular fluorescence was measured using a fluorescence intensity reading. Intracellular ASP+ was excited at 430 nm and emission read at 510 nm via a bottom read using the extended gain settings and high lamp energy setting.

T2 sequence (Q01959 whole entry): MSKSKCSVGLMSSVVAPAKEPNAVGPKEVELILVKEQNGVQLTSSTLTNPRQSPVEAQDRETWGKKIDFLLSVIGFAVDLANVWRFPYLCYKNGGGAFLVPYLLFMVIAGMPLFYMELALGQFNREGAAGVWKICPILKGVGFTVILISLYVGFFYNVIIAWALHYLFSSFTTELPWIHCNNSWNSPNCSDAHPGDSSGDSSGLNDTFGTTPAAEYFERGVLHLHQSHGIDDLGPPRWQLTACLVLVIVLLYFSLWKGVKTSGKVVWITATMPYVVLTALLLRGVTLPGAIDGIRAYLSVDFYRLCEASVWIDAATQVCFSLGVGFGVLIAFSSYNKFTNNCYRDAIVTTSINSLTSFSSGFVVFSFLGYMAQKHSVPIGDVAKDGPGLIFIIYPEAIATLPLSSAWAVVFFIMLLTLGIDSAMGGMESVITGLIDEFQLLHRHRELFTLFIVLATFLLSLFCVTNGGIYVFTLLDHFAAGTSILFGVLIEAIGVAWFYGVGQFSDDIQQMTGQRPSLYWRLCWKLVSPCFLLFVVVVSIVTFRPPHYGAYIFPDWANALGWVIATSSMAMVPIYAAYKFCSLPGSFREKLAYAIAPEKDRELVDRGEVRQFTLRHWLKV
T1 sequence (P31645 whole entry): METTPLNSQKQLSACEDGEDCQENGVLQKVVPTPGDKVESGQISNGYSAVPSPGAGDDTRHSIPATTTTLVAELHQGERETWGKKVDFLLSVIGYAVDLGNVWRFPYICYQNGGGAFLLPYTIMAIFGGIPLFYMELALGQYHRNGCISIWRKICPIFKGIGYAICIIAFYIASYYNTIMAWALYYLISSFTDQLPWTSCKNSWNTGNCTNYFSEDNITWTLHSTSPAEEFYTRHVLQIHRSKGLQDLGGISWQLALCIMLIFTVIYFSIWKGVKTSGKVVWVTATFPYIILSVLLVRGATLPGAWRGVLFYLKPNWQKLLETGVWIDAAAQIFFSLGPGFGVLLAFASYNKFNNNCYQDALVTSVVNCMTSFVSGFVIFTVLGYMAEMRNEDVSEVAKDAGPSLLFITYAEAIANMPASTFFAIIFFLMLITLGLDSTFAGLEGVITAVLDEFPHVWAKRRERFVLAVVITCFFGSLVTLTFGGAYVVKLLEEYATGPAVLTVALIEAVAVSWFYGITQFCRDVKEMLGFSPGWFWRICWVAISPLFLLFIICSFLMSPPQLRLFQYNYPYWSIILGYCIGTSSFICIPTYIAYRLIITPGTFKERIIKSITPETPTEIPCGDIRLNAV

SMILES: CC(N)(c1cc2ccccc2s1)C1CCCC1 (stereo not shown) [Compound 51, 1-(benzo[b]thiophen-2-yl)-1-cyclopentylethan-1-amine]
- NMDAR binding affinity pKi (mean ± SEM) [1]: < 5.00
- % inhibition of specific [3H]-MK-801 binding [1]: 34.6%

SMILES: C#CC(N)(c1ccccc1)C1CCCC1 (stereo not shown) [Compound 53, 1-cyclopentyl-1-phenylprop-2-yn-1-amine]
- NMDAR binding affinity pKi (mean ± SEM) [1]: < 5.00
- % inhibition of specific [3H]-MK-801 binding [1]: 45.0%

SMILES: CC(C)NC(C)(c1ccccc1)C1CCCC1 (stereo not shown) [Compound 19, N-(1-cyclopentyl-1-phenylethyl)propan-2-amine]
- Ki [2]: 151 nM
- NMDAR binding affinity pKi (mean ± SEM) [1]: 7.34 ± 0.041
- inhibition at 10 µM [3]: 39.2%

SMILES: CCCNC(c1ccccc1)C1CCCCC1 (stereo not shown) [Compound 31, N-(cyclohexyl(phenyl)methyl)propan-1-amine]
- NMDAR binding affinity pKi (mean ± SEM) [1]: 5.76

SMILES: NC(c1ccccc1Cl)C1CCCC1 (stereo not shown) [Compound 29, (2-chlorophenyl)(cyclopentyl)methanamine]
- IC50 [2]: > 10000 nM
- NMDAR binding affinity pKi (mean ± SEM) [1]: 5.47 ± 0.030
- inhibition at 10 µM [3]: 10.3%

SMILES: CC(N)(c1ccccc1)C1CCC1 (stereo not shown) [Compound 47, 1-cyclobutyl-1-phenylethan-1-amine]
- NMDAR binding affinity pKi (mean ± SEM) [1]: 6.75 ± 0.016

SMILES: NC(c1ccccc1)C1CCCC1 (stereo not shown) [Compound 27, Cyclopentyl(phenyl)methanamine]
- NMDAR binding affinity pKi (mean ± SEM) [1]: < 5.00
- % inhibition of specific [3H]-MK-801 binding [1]: 32.4%

SMILES: CC(c1ccccc1)(C1CCCC1)N1CCCCC1 (stereo not shown) [Compound 22, 1-(1-cyclopentyl-1-phenylethyl)piperidine]
- Ki [2]: 479 nM
- NMDAR binding affinity pKi (mean ± SEM) [1]: 6.08 ± .0633

SMILES: NC(c1ccccc1)(C1CCCC1)C1CCC1 (stereo not shown) [Compound 7, Cyclobutyl(cyclopentyl)(phenyl)methanamine]
- NMDAR binding affinity pKi (mean ± SEM) [1]: 5.63 ± 0.029
- inhibition at 10 µM [3]: 24.1%

SMILES: NC(c1ccccc1)C1CCCCC1 (stereo not shown) [Compound 28, Cyclohexyl(phenyl)methanamine]
- NMDAR binding affinity pKi (mean ± SEM) [1]: 4.97 ± 0.054
- inhibition at 10 µM [3]: 17.9%

SMILES: CC(N)(c1ccc(F)cc1)C1CCCC1 (stereo not shown) [Compound 48, 1-cyclopentyl-1-(4-fluorophenyl)ethan-1-amine]
- NMDAR binding affinity pKi (mean ± SEM) [1]: 6.96 ± 0.019

SMILES: CC(N)(c1ccccc1)C1CC1 (stereo not shown) [Compound 2, 1-cyclopropyl-1-phenylethan-1-amine]
- IC50 [2]: > 10000 nM
- NMDAR binding affinity pKi (mean ± SEM) [1]: 6.19 ± 0.162

SMILES: C=CCCC(N)(c1ccccc1)C1CCCC1 (stereo not shown) [Compound 8, 1-cyclopentyl-1-phenylpent-4-en-1-amine]
- NMDAR binding affinity pKi (mean ± SEM) [1]: 6.24 ± 0.444
- inhibition at 10 µM [3]: 3.1%

SMILES: COc1cccc(C(C)(N)C2CCCC2)c1 (stereo not shown) [Compound 13, 1-cyclopentyl-1-(3-methoxyphenyl)ethan-1-amine]
- NMDAR binding affinity pKi (mean ± SEM) [1]: 6.82 ± 0.039

SMILES: COc1ccc(C(C)(N)C2CCCC2)cc1 (stereo not shown) [Compound 49, 1-cyclopentyl-1-(4-methoxyphenyl)ethan-1-amine]
- NMDAR binding affinity pKi (mean ± SEM) [1]: 6.49 ± 0.0039

SMILES: CC(C)C(C)(N)c1ccccc1 (stereo not shown) [Compound 25, 3-methyl-2-phenylbutan-2-amine]
- NMDAR binding affinity pKi (mean ± SEM) [1]: 5.86 ± 0.044
- inhibition at 10 µM [3]: 37.6%

SMILES: CCNC(c1ccccc1)C1CCCC1 (stereo not shown) [Compound 32, N-(cyclopentyl(phenyl)methyl)ethanamine]
- NMDAR binding affinity pKi (mean ± SEM) [1]: 5.85

SMILES: CCCC(N)(c1ccccc1)C1CCCC1 (stereo not shown) [Compound 14, 1-cyclopentyl-1-phenylbutan-1-amine]
- NMDAR binding affinity pKi (mean ± SEM) [1]: 5.94 ± 0.166

SMILES: C=CC(N)(c1ccccc1)C1CCCC1 (stereo not shown) [Compound 10, 1-cyclopentyl-1-phenylprop-2-en-1-amine]
- NMDAR binding affinity pKi (mean ± SEM) [1]: 6.05

SMILES: CC(NC1CCC1)(c1ccccc1)C1CCCC1 (stereo not shown) [Compound 21, N-(1-cyclopentyl-1-phenylethyl)cyclobutanamine]
- NMDAR binding affinity pKi (mean ± SEM) [1]: 8.06 ± 0.021
- inhibition at 10 µM [3]: 87.3%

SMILES: CC(N)(c1cccc(C(F)(F)F)c1)C1CCCC1 (stereo not shown) [Compound 50, 1-cyclopentyl-1-(3-(trifluoromethyl)phenyl)ethan-1-amine]
- NMDAR binding affinity pKi (mean ± SEM) [1]: 5.86 ± 0.11

SMILES: C=CCC(N)c1ccccc1 (stereo not shown) [Compound 30, 1-phenylbut-3-en-1-amine]
- NMDAR binding affinity pKi (mean ± SEM) [1]: < 5.00
- % inhibition of specific [3H]-MK-801 binding [1]: 43.9%
